Patent US20050137166A1, “Use of cooling agents to relieve mild ocular irritation and enhance comfort” (Alcon, Inc., priority 2003, published 2005)
Each block holds one molecule with its values, some of them ahead of it.

Assays:
eyes of human patients [1] = test: Cooling sensation of compositions topically applied to the eyes of human patients; assay type: in vivo; conditions: for ability to produce a cooling sensation: human patients
Method: (§1) Compositions containing the cooling agents WS-3 and WS-23 in the vehicle described in Example 1 were prepared. The compositions were evaluated relative to the ability to produce a cooling sensation when topically applied to the eyes of human patients. The compositions were also evaluated with respect to the creation of ocular discomfort.

eyes of human patients [2] = test: Creation of ocular discomfort after topical application to the eyes of human patients; assay type: in vivo
Method: as §1

skin = conditions: versus menthol; cited from earlier work
mouth = conditions: versus menthol; cited from earlier work
[3] = WS-3 at 2 ppm to 5 ppm in the vehicle of Example 1, topical ocular
[4] = ophthalmic composition, ocular cooling
[5] = WS-23 at 10 ppm to 20 ppm in the vehicle of Example 1, topical ocular

Structure (SMILES): CCNC(=O)C1CC(C)CCC1C(C)C (centres unmarked) [WS-3, Cyclohexanecarboxamide, N-ethyl-5-methyl-2-(1-methylethyl)]
ability to produce a cooling sensation (eyes of human patients [1]; [3]): refreshing
optimal concentration (eyes of human patients [1]; [4]): 1 to 5 PPM
ocular discomfort / tolerability (eyes of human patients [2]; [3]): comfortable and well tolerated

ocular discomfort (eyes of human patients [2]; [5]): comfortable
Structure (SMILES): CNC(=O)C(C)(C(C)C)C(C)C [WS-23, N,2,3-Trimethyl-2-isopropylbutamide]
ability to produce a cooling sensation (eyes of human patients [1]; [5]): produced a cooling effect
concentration at which most effective (eyes of human patients [1]; [4]): 10 to 20 ppm

Structure (SMILES): CC1=C(N2CCCC2)C(=O)OC1 [4-methyl-3-(1-pyrrolididinyl)-2[5H]-furanone]
cooling power relative to menthol, on the skin (skin): over 500 times
cooling power relative to menthol, in the mouth (mouth): thirty-five
